In patent US20160375006A1, “USES OF PARALOG-SELECTIVE INHIBITORS OF GSK3 KINASES” (priority 2012, published 2016) one finds IC50 and GSK3β fold selectivity data, which are given here for 38 compounds.

Usually IC50 stands for the concentration at which inhibition is half-maximal. Read a high IC50 as weaker potency in that assay.

In experiment [1] the target is T1, GSK3β (Homo sapiens, UniProt P49841). The experiment is described as follows: biochemical.
Method: (§1) Reactions were terminated by the addition of 10 mM EDTA. Substrate and product were separated electrophoretically and fluorescence intensity of the substrate and product was determined by Labchip EZ Reader II (Caliper Life Sciences, MA). The kinase activity was measured as percent conversion. The reactions were performed in duplicate for each sample. […] The results were analyzed by Genedata Assay Analyzer. The percent inhibition was plotted against the compound concentration and the IC50 value was determined from the logistic dose-response curve fitting.
Experiment [2] has as its target GSK3α (Homo sapiens, UniProt P49840). The experiment is described as follows: biochemical.
For experiment [3], the target named is T1, GSK3β.
Method: as §1
Setting [4] is: Caliper assay, GSK3β over GSK3α.

Like-named read-outs stand apart in the source and are kept apart here.

T1 sequence (P49841 whole entry): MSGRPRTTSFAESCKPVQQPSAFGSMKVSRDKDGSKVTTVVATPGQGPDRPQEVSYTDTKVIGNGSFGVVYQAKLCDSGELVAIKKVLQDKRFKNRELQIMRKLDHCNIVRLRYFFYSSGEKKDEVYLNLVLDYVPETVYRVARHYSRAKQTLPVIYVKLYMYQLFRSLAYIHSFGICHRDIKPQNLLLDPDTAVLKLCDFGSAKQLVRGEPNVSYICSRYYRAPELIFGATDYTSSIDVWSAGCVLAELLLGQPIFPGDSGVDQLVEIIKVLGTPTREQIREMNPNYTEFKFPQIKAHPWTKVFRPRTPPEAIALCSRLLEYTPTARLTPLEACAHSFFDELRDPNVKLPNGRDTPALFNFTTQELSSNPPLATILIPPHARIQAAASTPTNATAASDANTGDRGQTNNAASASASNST
Chain of GSK3α (P49840 whole entry): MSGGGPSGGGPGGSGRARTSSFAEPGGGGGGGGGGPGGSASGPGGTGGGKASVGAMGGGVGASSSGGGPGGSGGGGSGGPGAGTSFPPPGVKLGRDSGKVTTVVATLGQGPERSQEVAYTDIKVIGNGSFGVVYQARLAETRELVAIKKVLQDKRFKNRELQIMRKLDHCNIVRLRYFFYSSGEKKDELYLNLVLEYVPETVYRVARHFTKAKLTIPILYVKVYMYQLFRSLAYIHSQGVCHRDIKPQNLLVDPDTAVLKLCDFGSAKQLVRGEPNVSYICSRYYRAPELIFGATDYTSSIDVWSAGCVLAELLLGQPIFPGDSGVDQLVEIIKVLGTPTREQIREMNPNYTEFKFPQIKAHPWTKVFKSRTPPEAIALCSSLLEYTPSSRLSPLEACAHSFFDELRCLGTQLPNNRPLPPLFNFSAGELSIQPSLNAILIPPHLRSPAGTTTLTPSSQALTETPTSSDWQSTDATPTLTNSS

In the case of `CC(C)(C)Cc1[nH]nc2c1[C@]1(CCOc3ccccc31)C1=C(CC(C)(C)CC1=O)N2` (stereo in doubt) [Compound 289], the figures for the IC50 in experiment [1] and in experiment [2] were 530 nM and 2980 nM, respectively. Moreover, the GSK3β fold selectivity in experiment [3] (setting [4]) was determined as 5.6 fold.

For the compound `CC1(C)CC(=O)C2=C(C1)Nc1n[nH]c(C3CCCCC3)c1[C@@]2(C)c1ccccc1` (stereo in doubt) [Compound 305], the IC50 in experiment [1] came to 5060 nM; in experiment [2] it was 17400 nM. In experiment [3] (setting [4]), the GSK3β fold selectivity is recorded as 3.4 fold.

In the case of `COc1ccccc1[C@H]1C2=C(CC(C)(C)CC2=O)Nc2n[nH]c(CC(C)(C)C)c21` (stereo in doubt) [Compound 279], the IC50 turned out to be 14 nM in experiment [1] and 135 nM in experiment [2]. The GSK3β fold selectivity in experiment [3] (setting [4]) is reported as 9.6 fold.

With `CC(C)(C)Cc1[nH]nc2c1[C@](C)(c1ccc(F)cc1)C1=C(CC(C)(C)CC1=O)N2` (stereo in doubt) [Compound 276], the IC50 was 104 nM in experiment [1] and 1060 nM in experiment [2]. The same compound had a GSK3β fold selectivity in experiment [3] (setting [4]) of 10.2 fold.

Turning to `CC(C)(C)Cc1[nH]nc2c1[C@@]1(CCc3ccccc31)C1=C(CC(C)(C)CC1=O)N2` (stereo in doubt) [Compound 282], the IC50 was 1.7 nM in experiment [1] and 28 nM in experiment [2]. This compound displayed a GSK3β fold selectivity in experiment [3] (setting [4]) of 16.5 fold.

On to `CC(C)c1[nH]nc2c1[C@@]1(CCc3ccccc31)C1=C(CC(C)(C)CC1=O)N2` (stereo in doubt) [Compound 242], for which the IC50 in experiment [1] was determined as 16 nM; in experiment [2], 81 nM. In experiment [3] (setting [4]), this compound had a GSK3β fold selectivity of 5.1 fold.

Regarding `CC(C)(C)Cc1[nH]nc2c1C1(CCc3cc(F)ccc31)C1=C(CC(C)(C)CC1=O)N2` (racemic) [Compound 284], the IC50 in experiment [1] was 63 nM; in experiment [2], 485 nM. The compound also yielded a GSK3β fold selectivity in experiment [3] (setting [4]) of 7.7 fold.

As for `CC1(C)CC(=O)C2=C(C1)Nc1n[nH]c(C3CCCC3)c1C2(C)c1ccccc1` (racemic) [Compound 300], the IC50 in experiment [1] turned out to be 439 nM; in experiment [2], 1520 nM. Further, in experiment [3] (setting [4]), the GSK3β fold selectivity is 3.5 fold.

For `CC1(C)CC(=O)C2=C(C1)Nc1n[nH]c(C3CC(F)(F)C3)c1[C@@]21CCc2cc(F)ccc21` [Compound 265], the IC50 in experiment [1] stood at 81 nM; in experiment [2], 710 nM. In experiment [3], this compound came in with a GSK3β fold selectivity of 8.8 fold.

`CC(C)c1[nH]nc2c1[C@]1(CCc3ccccc31)C1=C(CC(C)(C)CC1=O)N2` (stereo in doubt) [Compound 243]: the IC50 in experiment [1] amounted to 27 nM; in experiment [2], 178 nM. The same compound gave a GSK3β fold selectivity in experiment [3] (setting [4]) of 6.6 fold.

Take `CC1(C)CC(=O)C2=C(C1)Nc1n[nH]c(C3CC(F)(F)C3)c1[C@]21CCOc2ccccc21` [Compound 270]: the IC50 in experiment [1] is 210 nM; in experiment [2], 1630 nM. This compound also registered a GSK3β fold selectivity in experiment [3] of 7.8 fold.

For `CC1(C)CC(=O)C2=C(C1)Nc1n[nH]c(C3CC(F)(F)C3)c1[C@]21COc2ccccc21` [Compound 257], the IC50 in experiment [1] came out at 21 nM; in experiment [2] it was 339 nM. Also, the GSK3β fold selectivity in experiment [3] came out at 16.1 fold.

As to `CC(C)Cc1[nH]nc2c1[C@@](C)(c1ccccc1)C1=C(CC(C)(C)CC1=O)N2` (stereo in doubt) [Compound 308], the figures for the IC50 in experiment [1] and in experiment [2] were 4040 nM and 22300 nM, respectively. In experiment [3] (setting [4]), this compound yielded a GSK3β fold selectivity of 5.5 fold.

As to `CCC1(c2ccccc2)C2=C(CC(C)(C)CC2=O)Nc2n[nH]c(CC(C)(C)C)c21` (stereo not shown) [Compound 274], the IC50 in experiment [1] came out at 100 nM; in experiment [2] it was 340 nM. In experiment [3] (setting [4]), this compound came in with a GSK3β fold selectivity of 3.4 fold.

With `CN1C(=O)C2(C3=C(CC(C)(C)CC3=O)Nc3n[nH]c(CC(C)(C)C)c32)c2ccccc21` (stereo not shown) [Compound 287], the figures for the IC50 in experiment [1] and in experiment [2] were 939 nM and 8300 nM, respectively. For the same compound, the GSK3β fold selectivity in experiment [3] (setting [4]) was determined as 8.8 fold.

`CC(C)(C)Cc1[nH]nc2c1[C@@]1(CCc3cc(F)ccc31)C1=C(CC(C)(C)CC1=O)N2` (stereo in doubt) [Compound 285]: the IC50 came to 11 nM in experiment [1] and 249 nM in experiment [2]. The same compound returned a GSK3β fold selectivity in experiment [3] (setting [4]) of 22.6 fold.

Turning to `CC(C)(C)Cc1[nH]nc2c1C1(CCc3ccccc31)C1=C(CC(C)(C)CC1=O)N2` (racemic) [Compound 281], the concentration for half-maximal inhibition (IC50) in experiment [1] came to 4 nM; in experiment [2], 82 nM. In experiment [3] (setting [4]), this compound had a GSK3β fold selectivity of 20.5 fold.

Take `CC1(C)CC(=O)C2=C(C1)Nc1n[nH]c(C3CC(F)(F)C3)c1[C@]2(C)c1ccccc1` (stereo in doubt) [Compound 127]: the IC50 in experiment [1] is 10 nM; in experiment [2], 78 nM. Moreover, the GSK3β fold selectivity in experiment [3] (setting [4]) was determined as 7.8 fold; in experiment [3] (GSK3β over GSK3α) it was 6.4 fold.

With `CC(C)(C)Cc1[nH]nc2c1[C@]1(CCc3ccccc31)C1=C(CC(C)(C)CC1=O)N2` (stereo in doubt) [Compound 283], the IC50 in experiment [1] was determined as 212 nM; in experiment [2] it was 1910 nM. In experiment [3] (setting [4]), the GSK3β fold selectivity stood at 9.0 fold.

In the case of `CC1(C)CC(=O)C2=C(C1)Nc1n[nH]c(C3CC(F)(F)C3)c1[C@]2(C)c1cccc(C(F)(F)F)c1` (stereo in doubt) [Compound 248], the IC50 in experiment [1] came to 30 nM; in experiment [2], 86 nM. The compound also registered a GSK3β fold selectivity in experiment [3] (setting [4]) of 2.9 fold.

Regarding `COc1ccccc1[C@@H]1C2=C(CC(C)(C)CC2=O)Nc2n[nH]c(CC(C)(C)C)c21` (stereo in doubt) [Compound 280], the IC50 in experiment [1] is 1910 nM; in experiment [2], 10600 nM. Besides, the GSK3β fold selectivity in experiment [3] (setting [4]) is reported as 5.6 fold.

In the case of `CC1(C)CC(=O)C2=C(C1)Nc1n[nH]c(C3CC(F)(F)C3)c1C21CCCc2ccccc21` (stereo not shown) [Compound 267], the IC50 in experiment [1] turned out to be 38 nM; in experiment [2], 342 nM. The GSK3β fold selectivity in experiment [3] turned out to be 9.0 fold.

Consider `CC1(C)CC(=O)C2=C(C1)Nc1n[nH]c(C3CCCCC3)c1[C@]2(C)c1ccccc1` (stereo in doubt) [Compound 304], for which the IC50 turned out to be 977 nM in experiment [1] and 2380 nM in experiment [2]. Also, the GSK3β fold selectivity in experiment [3] (setting [4]) came to 2.4 fold.

Turning to `CCC(C)(C)Cc1[nH]nc2c1[C@](C)(c1ccccc1)C1=C(CC(C)(C)CC1=O)N2` (stereo in doubt) [Compound 291], the IC50 in experiment [1] was 52 nM; in experiment [2] it was 332 nM. In experiment [3] (setting [4]), the GSK3β fold selectivity turned out to be 6.4 fold.

As for `CCC(C)(C)Cc1[nH]nc2c1[C@@]1(CCc3cc(F)ccc31)C1=C(CC(C)(C)CC1=O)N2` (stereo in doubt) [Compound 293], the IC50 in experiment [1] was 127 nM; in experiment [2], 1440 nM. The same compound gave a GSK3β fold selectivity in experiment [3] (setting [4]) of 11.3 fold.

Turning to `CC1(C)CC(=O)C2=C(C1)Nc1n[nH]c(C3CCCC3)c1[C@]2(C)c1ccccc1` (stereo in doubt) [Compound 301], the values for the IC50 in experiment [1] and in experiment [2] were 372 nM and 1060 nM, respectively. Further, in experiment [3] (setting [4]), the GSK3β fold selectivity was 2.9 fold.

Consider `CC1(C)CC(=O)C2=C(C1)Nc1n[nH]c(C3CC(F)(F)C3)c1[C@@]21CCc2c(F)cccc21` [Compound 262], for which the IC50 in experiment [1] came to 124 nM; in experiment [2] it was 542 nM. Besides, the GSK3β fold selectivity in experiment [3] worked out at 4.4 fold.

`CC[C@@]1(c2cccc(C(C)(C)C)c2)C2=C(CC(C)(C)CC2=O)Nc2n[nH]cc21` (stereo in doubt) [Compound 226]: the figures for the IC50 in experiment [1] and in experiment [2] were 12 nM and 51 nM, respectively. The compound also displayed a GSK3β fold selectivity in experiment [3] (setting [4]) of 4.3 fold.

`CC(C)(C)Cc1[nH]nc2c1[C@](C)(c1ccccc1)C1=C(CC(C)(C)CC1=O)N2` (stereo in doubt) [Compound 272]: the IC50 in experiment [1] turned out to be 15 nM; in experiment [2], 215 nM. The compound further returned a GSK3β fold selectivity in experiment [3] (setting [4]) of 14.3 fold.

Consider `CC(C)(C)Cc1[nH]nc2c1[C@]1(CCc3cc(F)ccc31)C1=C(CC(C)(C)CC1=O)N2` (stereo in doubt) [Compound 286], for which the values for the IC50 in experiment [1] and in experiment [2] were 790 nM and 4760 nM, respectively. For the same compound, the GSK3β fold selectivity in experiment [3] (setting [4]) is 6.0 fold.

`CC1(C)CC(=O)C2=C(C1)Nc1n[nH]c(Cc3ccccc3)c1[C@]2(C)c1ccccc1` (stereo in doubt) [Compound 327]: the IC50 in experiment [1] stood at 185 nM; in experiment [2], 607 nM. In experiment [3] (setting [4]), the GSK3β fold selectivity amounted to 3.3 fold.

On to `CC1(C)CC(=O)C2=C(C1)Nc1n[nH]c(C3CCCC3)c1[C@@]2(C)c1ccccc1` (stereo in doubt) [Compound 302], for which the IC50 in experiment [1] was 5280 nM; in experiment [2], 27500 nM. The compound further registered a GSK3β fold selectivity in experiment [3] (setting [4]) of 5.2 fold.

Regarding `COc1ccccc1[C@]1(C)C2=C(CC(C)(C)CC2=O)Nc2n[nH]c(C3CC(F)(F)C3)c21` (stereo in doubt) [Compound 254], the IC50 is 2520 nM in experiment [1] and 9330 nM in experiment [2]. For the same compound, in experiment [3] (setting [4]), the GSK3β fold selectivity came to 3.7 fold.

Regarding `CC1(C)CC(=O)C2=C(C1)Nc1n[nH]c(C3CC(F)(F)C3)c1[C@@]21CCc2ccccc21` [Compound 259], the 50% inhibitory concentration (IC50) in experiment [1] turned out to be 20 nM; in experiment [2] it was 87 nM. In experiment [3], the GSK3β fold selectivity is recorded as 4.4 fold.

As to `CCC(C)(C)Cc1[nH]nc2c1[C@]1(CCc3cc(F)ccc31)C1=C(CC(C)(C)CC1=O)N2` (stereo in doubt) [Compound 294], the concentration for half-maximal inhibition (IC50) in experiment [1] amounted to 785 nM; in experiment [2], 4760 nM. In addition, the GSK3β fold selectivity in experiment [3] (setting [4]) stood at 6.1 fold.

On to `CC(C)(C)Cc1[nH]nc2c1C(C)(c1ccccc1)C1=C(CC(C)(C)CC1=O)N2` (racemic) [Compound 271], for which the IC50 in experiment [1] is 25 nM; in experiment [2] it was 237 nM. Moreover, in experiment [3] (setting [4]), the GSK3β fold selectivity is 9.5 fold.

As to `CC(C)(C)Cc1[nH]nc2c1[C@@](C)(c1ccccc1)C1=C(CC(C)(C)CC1=O)N2` (stereo in doubt) [Compound 273], the IC50 in experiment [1] is 1050 nM; in experiment [2], 6700 nM. For the same compound, in experiment [3] (setting [4]), the GSK3β fold selectivity came out at 6.4 fold.

For the compound `COc1ccccc1C1(C)C2=C(CC(C)(C)CC2=O)Nc2n[nH]c(C3CC(F)(F)C3)c21` (racemic) [Compound 253], the IC50 in experiment [1] was 3380 nM; in experiment [2], 12400 nM. The same compound registered a GSK3β fold selectivity in experiment [3] (setting [4]) of 3.7 fold.
